“Also recorded” adds a separate entry of the source.
Test system: serum triglyceride levels in male ICR mice
Assay: Oral administration of peptides to determine inhibition of serum triglyceride level elevation after olive oil feeding
Type: in vivo
Settings: for Serum Triglyceride: male ICR mice fasted overnight, olive oil 250 mg by gastric intubation, peptide 1.0 mg/mouse orally one hour after lipid, blood collected after two hours; for % Decrease (serum triglyceride) / Activity in lowering elevated serum triglyceride levels compared with the corresponding natural reference peptide: male ICR mice, peptide 1.0 mg/mouse orally; for % Decrease (serum triglyceride): olive oil 250 mg, versus Olive Oil Only; for Activity in lowering elevated serum triglyceride levels compared with the corresponding natural reference peptide: olive oil load, comparison in words
Method: Olive oil (250 mg) was administered via gastric intubation to male ICR mice (6-week old, body weight: 20 g), which were fasted overnight. The peptides were dissolved in 0.1 ml saline solution and administered orally one hour after lipid administration. For the control group, 0.1 ml of saline solution was administered per mouse. After two hours, blood was collected from the orbital vein under ether anesthesia and the serum was separated by centrifugation (3000 rpm, 30 min, 1° C.). Serum triglyceride levels were assayed using commercially available methods (e.g. INFINITY (Registered Trade Mark) triglycerides reagent; Sigma Chemical Co.). The results were compared with L-Val-L-Val-L-Tyr-L-Pro (Reference Peptide 1), L-Val-L-Tyr-L-Pro (Reference Peptide 2), and L-Val-L-Thr-L-Leu (Reference Peptide 3) and shown in Table 1.

## D-Leu D-Thr D-Val C-NH2 [Retro Inverso Polypeptide 3]
  Serum Triglyceride: 294.6 ± 33.8 mg/100 ml
  % Decrease (serum triglyceride): 28.7%
  Activity in lowering elevated serum triglyceride levels compared with the corresponding natural reference peptide: higher activities in lowering elevated serum triglyceride levels than Reference 2 and 3, respectively
Listed as D-Leu D-Thr D-Val
  Activity in lowering elevated serum triglyceride levels compared with the corresponding natural reference peptide: substantially exceed the activity of the corresponding natural oligopeptide

## D-Pro D-Tyr D-Val C-NH2 [Retro Inverso Polypeptide 2]
  Serum Triglyceride: 231.8 ± 27.6 mg/100 ml
  % Decrease (serum triglyceride): 50.8%
  Activity in lowering elevated serum triglyceride levels compared with the corresponding natural reference peptide: substantially exceed the activity of the corresponding natural oligopeptide

## D-Pro D-Tyr D-Val D-Val C-NH2 [Retro Inverso Polypeptide 1]
  Serum Triglyceride: 313.7 ± 45.9 mg/100 ml
  % Decrease (serum triglyceride): 22.0%
  Activity in lowering elevated serum triglyceride levels compared with the corresponding natural reference peptide: higher activities in lowering elevated serum triglyceride levels than Reference 2 and 3, respectively; also recorded: about half of Reference Peptide 1

## L-Val-L-Thr-L-Leu [Ref. Peptide 3, reference compound]
  Serum Triglyceride: 352.7 ± 35.6 mg/100 ml
  % Decrease (serum triglyceride): 8.3%

## L-Val-L-Tyr-L-Pro [Ref. Peptide 2, reference compound]
  Serum Triglyceride: 407.7 ± 42.0 mg/100 ml
  % Decrease (serum triglyceride): 0%

## L-Val-L-Val-L-Tyr-L-Pro [Ref. Peptide 1, reference compound]
  Serum Triglyceride: 244.7 ± 25.5 mg/100 ml
  % Decrease (serum triglyceride): 46.3%
